From ChEMBL document CHEMBL5518247 (J Med Chem, 2024) come the findings set out here.

A short description of series [1]: Inhibition of recombinant PKCgamma (unknown origin) expressed in baculovirus infected in Sf9 cells using biotin-Ahx-peptide as substrate. The arrangement: species or system Homo sapiens.
Series [2] can be described thus: Oral absorption in C57BL/6J mouse at 20 mg/kg measured up to 48 hrs by LC-MS/MS analysis. The class given is ADME, organism-based. The following applies: in vivo.
A short description of series [3]: Oral bioavailability in ICR mouse at 20 mg/kg measured up to 48 hrs by LC-MS/MS analysis. The class given is ADME, organism-based. The settings on record: in vivo.

As usually defined, the IC50 is the concentration at which inhibition is half-maximal. Usually bioavailability stands for dose-corrected exposure relative to a reference, in per cent.

As to `Cc1n[nH]c2ccc(-c3cncc(OC[C@H](N)Cc4c[nH]c5ccccc45)c3)cc12`, the IC50 in series [1] is 1400 nM. As for `C=CC(=O)Nc1ccc2[nH]c(=O)n(C3CCN(Cc4ccc(-c5nc6cc[nH]c(=O)c6cc5-c5ccccc5)cc4)CC3)c2c1` [Borussertib], the Fa at 48 h in series [2] was 39.6%. In series [3], this molecule yielded a bioavailability of under 5%.
